Results: US11492348B2, “Tri-substituted aryl and heteroaryl derivatives as modulators of PI3-kinase and autophagy pathways” (Neuropore Therapies, Inc., priority 2018, dated 2022)
pIC50: −log10 of the molar value.

Assays:
mTor kinase = mTor kinase (Homo sapiens (Human), UniProt P42345); assay: mTor assay (33P-ATP filter-binding kinase assay); format: biochemical; settings: 2 hours at room temperature
Protocol: The substrate was prepared in base reaction buffer (20 mM Hepes (pH 7.5), 10 mM MgCl2, 1 mM EGTA, 0.02% Brij35, 0.02 mg/ml BSA, 0.1 mM Na3VO4, 2 mM DTT, 1% DMSO), and required cofactors were added to the substrate solution. The mTor kinase was delivered into the substrate solution, and the solution was gently mixed. Testing compounds were dissolved in 100% DMSO to specific concentration. The serial dilution was conducted by Integra Viaflo Assist in DMSO. The compounds were delivered into the kinase reaction mixture by Acoustic technology (Echo550; nanoliter range), and the reaction mixture was incubated for 20 min at room temperature. Then, 33P-ATP (Specific activity 10 μCi/μl) was delivered into the reaction mixture to initiate the reaction. The reaction mixture was incubated for 2 hours at room temperature. Radioactivity was detected by a filter-binding method. Kinase activity data were expressed as the percent remaining kinase activity in test samples compared to vehicle (dimethyl sulfoxide) reactions. IC50 values and curve fits were obtained using Prism (GraphPad Software).

PI3Kα = PI3Kα (Homo sapiens (Human), UniProt P42336); assay: Inhibition of PI3Kα (ADP-Glo kinase activity assay, ATP to ADP conversion); format: biochemical; settings: 25 μM PIP2:PS, 60 μM ATP, 30 min reaction, luminescence
Chain of PI3Kα (P42336 whole entry): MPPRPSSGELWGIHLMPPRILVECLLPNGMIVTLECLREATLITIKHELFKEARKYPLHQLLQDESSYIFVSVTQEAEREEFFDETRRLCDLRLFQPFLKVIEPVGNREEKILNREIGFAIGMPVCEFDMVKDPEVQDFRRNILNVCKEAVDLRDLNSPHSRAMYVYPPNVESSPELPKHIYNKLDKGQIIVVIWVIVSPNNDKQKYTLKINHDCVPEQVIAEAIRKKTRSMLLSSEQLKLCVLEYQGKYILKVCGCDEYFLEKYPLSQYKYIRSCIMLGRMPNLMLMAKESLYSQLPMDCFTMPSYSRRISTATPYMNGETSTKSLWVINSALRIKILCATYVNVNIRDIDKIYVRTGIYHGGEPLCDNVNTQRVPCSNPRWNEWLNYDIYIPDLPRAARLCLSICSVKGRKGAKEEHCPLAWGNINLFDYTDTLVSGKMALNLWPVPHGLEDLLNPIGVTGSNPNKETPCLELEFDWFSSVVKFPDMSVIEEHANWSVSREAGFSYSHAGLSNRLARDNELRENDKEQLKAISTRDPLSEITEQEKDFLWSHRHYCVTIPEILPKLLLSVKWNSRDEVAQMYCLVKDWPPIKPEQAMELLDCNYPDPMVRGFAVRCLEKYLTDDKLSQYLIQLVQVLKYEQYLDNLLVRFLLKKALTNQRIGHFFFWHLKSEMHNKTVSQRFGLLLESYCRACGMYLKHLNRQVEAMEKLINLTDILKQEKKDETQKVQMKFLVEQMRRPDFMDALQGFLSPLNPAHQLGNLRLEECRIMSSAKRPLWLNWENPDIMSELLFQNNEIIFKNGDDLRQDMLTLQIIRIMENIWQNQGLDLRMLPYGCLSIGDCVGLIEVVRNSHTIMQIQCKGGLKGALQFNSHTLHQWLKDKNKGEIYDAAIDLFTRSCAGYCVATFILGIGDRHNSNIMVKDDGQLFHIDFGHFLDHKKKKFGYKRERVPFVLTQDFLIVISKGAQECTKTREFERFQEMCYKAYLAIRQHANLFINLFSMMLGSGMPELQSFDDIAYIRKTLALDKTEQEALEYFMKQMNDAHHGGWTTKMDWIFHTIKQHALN
Chain of PI3Kα (P27986 whole entry partner): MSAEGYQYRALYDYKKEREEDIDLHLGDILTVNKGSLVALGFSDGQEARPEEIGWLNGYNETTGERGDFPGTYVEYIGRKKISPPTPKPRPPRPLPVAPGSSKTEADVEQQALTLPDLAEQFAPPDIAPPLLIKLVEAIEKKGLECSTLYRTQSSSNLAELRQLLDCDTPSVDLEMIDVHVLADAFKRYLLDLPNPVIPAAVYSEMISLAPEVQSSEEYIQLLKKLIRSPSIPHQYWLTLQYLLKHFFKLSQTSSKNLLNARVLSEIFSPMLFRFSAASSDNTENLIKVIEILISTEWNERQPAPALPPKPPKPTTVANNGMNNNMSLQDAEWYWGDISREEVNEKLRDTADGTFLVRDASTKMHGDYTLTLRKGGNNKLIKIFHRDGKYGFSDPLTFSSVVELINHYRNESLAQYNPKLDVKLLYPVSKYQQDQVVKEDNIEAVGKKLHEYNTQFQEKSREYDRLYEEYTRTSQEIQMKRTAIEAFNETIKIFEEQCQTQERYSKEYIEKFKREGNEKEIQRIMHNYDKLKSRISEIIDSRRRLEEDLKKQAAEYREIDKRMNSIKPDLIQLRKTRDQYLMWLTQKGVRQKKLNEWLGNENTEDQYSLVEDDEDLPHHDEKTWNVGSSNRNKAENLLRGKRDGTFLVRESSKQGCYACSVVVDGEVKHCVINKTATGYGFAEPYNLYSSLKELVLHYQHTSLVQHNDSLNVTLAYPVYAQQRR
In short: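 Recombinant active PI3Kα (1.1 nM) in HEPES pH 7.5 buffer with 6 mM MgCl2 and 8 mM DTT was preincubated with compound for 0 or 3 h. The reaction ran for 30 min with 25 µM PIP2:PS and 60 µM ATP, and ADP formation was read by ADP-Glo luminescence. IC50 came from a 12-point, 1:3 series fitted with a 4-parameter model, bottom fixed to reference inhibitor controls and top floating.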

[1] = test system: (Ser-473) pAKT in B103 (Rat Neuroblastoma) cells; assay: pAKT protocol: loss of (Ser-473) pAKT by AlphaScreen in insulin-stimulated B103 cells; format: cell-based; settings: (Ser-473) pAKT/total AKT IC50, 2-hour pretreatment, 2.5 μg/mL insulin 20 minutes
In short: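 Rat neuroblastoma B103 cells, serum-starved 6 h, were pretreated 2 h with inhibitors (6-point 1:3 series, 0.5% DMSO) before insulin stimulation. Lysate Ser-473 pAKT and total AKT measured by AlphaScreen; pAKT/total AKT ratio fitted to 4-parameter curve, bottom constrained to reference control, top anchored to DMSO.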

SMILES | pIC50 (mTor kinase) | PI3Ka IC50 (PI3Kα) [µM] | pIC50 [1]
Nc1ncc(-c2cc(N3CCOCC3)cc(S(=O)(=O)[C@@H]3CCOC3)c2)cn1 [Compound 52, (R)-5-(3-morpholino-5-((tetrahydrofuran-3-yl)sulfonyl)phenyl)pyrimidin-2-amine] | 6.14 | 0.13 | 5.46
Nc1ncc(-c2cc(N3CCOCC3)cc(S(=O)(=O)[C@H]3CCOC3)c2)cn1 [Compound 53, (S)-5-(3-morpholino-5-((tetrahydrofuran-3-yl)sulfonyl)phenyl)pyrimidin-2-amine] | 6.27 | 0.11 | 5.78
CC(C)(C)OC(=O)N1CC(S(=O)(=O)c2cc(-c3cnc(N)nc3)cc(N3CCOCC3)c2)C1 [Compound 54, tert-butyl 3-((3-(2-aminopyrimidin-5-yl)-5-morpholinophenyl)sulfonyl) azetidine-1-carboxylate] | 6.23 | 0.13 | 5.61
Nc1ncc(-c2cc(N3CCOCC3)cc(S(=O)(=O)Cc3ccc4[nH]ccc4c3)c2)cn1 [Compound 56, 5-(3-(((1H-indol-5-yl)methyl)sulfonyl)-5-morpholinophenyl)pyrimidin-2-amine] | 5.21 | 0.26 | 4.70
Nc1ncc(-c2cc(N3CCOCC3)cc(S(=O)(=O)C3CCOCC3)c2)cn1 [Compound 62, 5-(3-morpholino-5-((tetrahydro-2H-pyran-4-yl)sulfonyl)phenyl)pyrimidin-2-amine] | 5.73 | 0.33 | 5.19
CC(=O)N1CC(S(=O)(=O)c2cc(-c3cnc(N)nc3)cc(N3CCOCC3)c2)C1 [Compound 68, 1-(3-((3-(2-aminopyrimidin-5-yl)-5-morpholinophenyl)sulfonyl)azetidin-1-yl)ethan-1-one] | 5.92 | 0.047 | 5.33
Nc1cc(C(F)(F)F)c(-c2cc(N3CCOCC3)cc(S(=O)(=O)C3CCOC3)c2)cn1 (stereo not drawn) [Compound 70, 5-(3-morpholino-5-((tetrahydrofuran-3-yl)sulfonyl)phenyl)-4-(trifluoromethyl)pyridin-2-amine] | 5.12 | 7.6 | 5.40
Nc1ncc(-c2cc(N3CCOCC3)cc(S(=O)(=O)C(F)(F)c3ccccc3)c2)cn1 [Compound 87, 5-(3-((difluoro(phenyl)methyl)sulfonyl)-5-morpholinophenyl)pyrimidin-2-amine] | 5.84 | 0.21 | 6.00
Nc1ncc(-c2cc(N3CCOCC3)cc(S(=O)(=O)C3CCC(F)(F)CC3)c2)cn1 [Compound 88, 5-(3-((4,4-difluorocyclohexyl)sulfonyl)-5-morpholinophenyl)pyrimidin-2-amine] | 5.61 | 0.53 | 5.18
CC(=O)N1CCC(S(=O)(=O)c2cc(-c3cnc(N)nc3)cc(N3CCOCC3)c2)C1 (stereo not drawn) [Compound 91, 1-(3-((3-(2-aminopyrimidin-5-yl)-5-morpholinophenyl)sulfonyl)pyrrolidin-1-yl)ethan-1-one] | 5.59 | 0.18 | 5.13
CCNC(=O)N1CC(S(=O)(=O)c2cc(-c3cnc(N)nc3)cc(N3CCOCC3)c2)C1 [Compound 93, 3-((3-(2-aminopyrimidin-5-yl)-5-morpholinophenyl)sulfonyl)-N-ethylazetidine-1-carboxamide] | 6.06 | 0.088 | 5.26
Nc1cc(F)c(-c2cc(N3CCOCC3)cc(S(=O)(=O)[C@@H]3CCOC3)c2)cn1 [Compound 106, (R)-4-fluoro-5-(3-morpholino-5-((tetrahydrofuran-3-yl)sulfonyl)phenyl)pyridin-2-amine] | 5.84 | 0.10 | 5.39
Nc1cc(Cl)c(-c2cc(N3CCOCC3)cc(S(=O)(=O)[C@@H]3CCOC3)c2)cn1 [Compound 107, (R)-4-chloro-5-(3-morpholino-5-((tetrahydrofuran-3-yl)sulfonyl)phenyl)pyridin-2-amine] | 5.36 | 0.067 | 5.43
